From ChEMBL document CHEMBL3872249, “Computer design, synthesis, and bioactivity analyses of drugs like fingolimod used in the treatment of multiple sclerosis” (Bioorg Med Chem, 2017)

How the values were obtained:
Type in all cases: functional
SH-SY5Y [1] = assay: Effect on PMP22 mRNA expression in human SH-SY5Y cells at EC10 by qPCR method relative to beta-actin
SH-SY5Y [2] = assay: Effect on IFNG mRNA expression in human SH-SY5Y cells at EC10 by qPCR method relative to beta-actin
SH-SY5Y [3] = assay: Effect on IL1B mRNA expression in human SH-SY5Y cells at EC10 by qPCR method relative to beta-actin
SH-SY5Y [4] = assay: Effect on IL2 mRNA expression in human SH-SY5Y cells at EC10 by qPCR method relative to beta-actin
SH-SY5Y [5] = assay: Effect on BCL2 mRNA expression in human SH-SY5Y cells at EC10 by qPCR method relative to beta-actin
SH-SY5Y [6] = assay: Effect on EDNRA mRNA expression in human SH-SY5Y cells at EC10 by qPCR method relative to beta-actin
SH-SY5Y [7] = assay: Effect on MYC mRNA expression in human SH-SY5Y cells at EC10 by qPCR method relative to beta-actin
SH-SY5Y [8] = assay: Effect on NFKB1 mRNA expression in human SH-SY5Y cells at EC10 by qPCR method relative to beta-actin
SH-SY5Y [9] = assay: Effect on ADCY5 mRNA expression in human SH-SY5Y cells at EC10 by qPCR method relative to beta-actin
SH-SY5Y [10] = assay: Effect on NOS2 mRNA expression in human SH-SY5Y cells at EC10 by qPCR method relative to beta-actin
SH-SY5Y [11] = assay: Effect on TSHR mRNA expression in human SH-SY5Y cells at EC10 by qPCR method relative to beta-actin
SH-SY5Y [12] = assay: Effect on S1PR3 mRNA expression in human SH-SY5Y cells at EC10 by qPCR method relative to beta-actin
SH-SY5Y [13] = assay: Effect on AKT1 mRNA expression in human SH-SY5Y cells at EC10 by qPCR method relative to beta-actin
SH-SY5Y [14] = assay: Effect on PIK3CG mRNA expression in human SH-SY5Y cells at EC10 by qPCR method relative to beta-actin
U-118-MG [15] = assay: Effect on IL1B mRNA expression in human U118MG cells at EC10 by qPCR method relative to beta-actin
U-118-MG [16] = assay: Effect on TNF mRNA expression in human U118MG cells at EC10 by qPCR method relative to beta-actin
U-118-MG [17] = assay: Effect on CXCL11 mRNA expression in human U118MG cells at EC10 by qPCR method relative to beta-actin
U-118-MG [18] = assay: Effect on IL2 mRNA expression in human U118MG cells at EC10 by qPCR method relative to beta-actin
U-118-MG [19] = assay: Effect on BCL2 mRNA expression in human U118MG cells at EC10 by qPCR method relative to beta-actin
U-118-MG [20] = assay: Effect on ICAM1 mRNA expression in human U118MG cells at EC10 by qPCR method relative to beta-actin
U-118-MG [21] = assay: Effect on MYC mRNA expression in human U118MG cells at EC10 by qPCR method relative to beta-actin
U-118-MG [22] = assay: Effect on CYP19A1 mRNA expression in human U118MG cells at EC10 by qPCR method relative to beta-actin
U-118-MG [23] = assay: Effect on NOS2 mRNA expression in human U118MG cells at EC10 by qPCR method relative to beta-actin
U-118-MG [24] = assay: Effect on DRD2 mRNA expression in human U118MG cells at EC10 by qPCR method relative to beta-actin
SK-N-SH [25] = assay: Effect on IFNG mRNA expression in human SK-N-SH cells at EC10 by qPCR method relative to beta-actin
SK-N-SH [26] = assay: Effect on BCL2 mRNA expression in human SK-N-SH cells at EC10 by qPCR method relative to beta-actin
SK-N-SH [27] = assay: Effect on FASLG mRNA expression in human SK-N-SH cells at EC10 by qPCR method relative to beta-actin
SK-N-SH [28] = assay: Effect on VEGFA mRNA expression in human SK-N-SH cells at EC10 by qPCR method relative to beta-actin
SK-N-SH [29] = assay: Effect on ICAM1 mRNA expression in human SK-N-SH cells at EC10 by qPCR method relative to beta-actin
SK-N-SH [30] = assay: Effect on MMP9 mRNA expression in human SK-N-SH cells at EC10 by qPCR method relative to beta-actin
SK-N-SH [31] = assay: Effect on JUN mRNA expression in human SK-N-SH cells at EC10 by qPCR method relative to beta-actin
SK-N-SH [32] = assay: Effect on MYC mRNA expression in human SK-N-SH cells at EC10 by qPCR method relative to beta-actin
SK-N-SH [33] = assay: Effect on STAT3 mRNA expression in human SK-N-SH cells at EC10 by qPCR method relative to beta-actin
SK-N-SH [34] = assay: Effect on COL1A1 mRNA expression in human SK-N-SH cells at EC10 by qPCR method relative to beta-actin
SK-N-SH [35] = assay: Effect on NOS2 mRNA expression in human SK-N-SH cells at EC10 by qPCR method relative to beta-actin
SK-N-SH [36] = assay: Effect on S1PR3 mRNA expression in human SK-N-SH cells at EC10 by qPCR method relative to beta-actin
SK-N-SH [37] = assay: Effect on FGF2 mRNA expression in human SK-N-SH cells at EC10 by qPCR method relative to beta-actin
SK-N-SH [38] = assay: Effect on AKT1 mRNA expression in human SK-N-SH cells at EC10 by qPCR method relative to beta-actin
SK-N-SH [39] = assay: Effect on CFLAR mRNA expression in human SK-N-SH cells at EC10 by qPCR method relative to beta-actin
SK-N-SH [40] = assay: Effect on PIK3CG mRNA expression in human SK-N-SH cells at EC10 by qPCR method relative to beta-actin
SK-N-SH [41] = assay: Effect on AGTR2 mRNA expression in human SK-N-SH cells at EC10 by qPCR method relative to beta-actin
U-118-MG [42] = assay: Effect on MAG mRNA expression in human U118MG cells at EC10 by qPCR method relative to beta-actin
U-118-MG [43] = assay: Effect on CCL3 mRNA expression in human U118MG cells at EC10 by qPCR method relative to beta-actin
SK-N-SH [44] = assay: Effect on MAG mRNA expression in human SK-N-SH cells at EC10 by qPCR method relative to beta-actin

## CCCCCCCCn1nnnc1CCC(N)(CO)CO.Cl
SH-SY5Y [1]
  fold change (FC): -3.5921
SH-SY5Y [2]
  fold change (FC): -2.7247
SH-SY5Y [3]
  fold change (FC): -6.5966
SH-SY5Y [4]
  fold change (FC): -3.9071
SH-SY5Y [5]
  fold change (FC): -4.8227
SH-SY5Y [6]
  fold change (FC): 3.6859
SH-SY5Y [7]
  fold change (FC): -5.0669
SH-SY5Y [8]
  fold change (FC): -3.8433
SH-SY5Y [9]
  fold change (FC): -5.9067
SH-SY5Y [10]
  fold change (FC): -4.7071
SH-SY5Y [11]
  fold change (FC): 4.7801
SH-SY5Y [12]
  fold change (FC): -2.5755
SH-SY5Y [13]
  fold change (FC): -4.1766
SH-SY5Y [14]
  fold change (FC): -3.5167
U-118-MG [15]
  fold change (FC): -3.0275
U-118-MG [16]
  fold change (FC): -5.8487
U-118-MG [17]
  fold change (FC): -2.9665
U-118-MG [18]
  fold change (FC): -4.2107
U-118-MG [19]
  fold change (FC): -4.6127
U-118-MG [20]
  fold change (FC): -5.127
U-118-MG [21]
  fold change (FC): -4.1285
U-118-MG [22]
  fold change (FC): -3.3614
U-118-MG [23]
  fold change (FC): -4.0673
U-118-MG [24]
  fold change (FC): -2.5398
SK-N-SH [25]
  fold change (FC): -3.6601
SK-N-SH [26]
  fold change (FC): -7.8184
SK-N-SH [27]
  fold change (FC): -2.9626
SK-N-SH [28]
  fold change (FC): -7.9138
SK-N-SH [29]
  fold change (FC): -9.5591
SK-N-SH [30]
  fold change (FC): -5.1049
SK-N-SH [31]
  fold change (FC): -7.2696
SK-N-SH [32]
  fold change (FC): -4.315
SK-N-SH [33]
  fold change (FC): -5.0696
SK-N-SH [34]
  fold change (FC): -3.842
SK-N-SH [35]
  fold change (FC): -5.1582
SK-N-SH [36]
  fold change (FC): -4.0052
SK-N-SH [37]
  fold change (FC): -6.7243
SK-N-SH [38]
  fold change (FC): -5.3124
SK-N-SH [39]
  fold change (FC): -3.3101
SK-N-SH [40]
  fold change (FC): -7.7108
SK-N-SH [41]
  fold change (FC): 9.0827

## CCCCCCCCc1ccc(CCC(N)(CO)CO)cc1 [FINGOLIMOD]
SH-SY5Y [1]
  fold change (FC): -5.1694
SH-SY5Y [2]
  fold change (FC): -5.1964
SH-SY5Y [3]
  fold change (FC): -4.7158
SH-SY5Y [5]
  fold change (FC): -4.2945
SH-SY5Y [6]
  fold change (FC): 6.8804
SH-SY5Y [7]
  fold change (FC): -4.508
SH-SY5Y [8]
  fold change (FC): -3.9931
SH-SY5Y [9]
  fold change (FC): -5.5117
SH-SY5Y [10]
  fold change (FC): -3.9518
SH-SY5Y [11]
  fold change (FC): -4.0629
SH-SY5Y [13]
  fold change (FC): -9.4316
SH-SY5Y [14]
  fold change (FC): -5.6081
U-118-MG [42]
  fold change (FC): 4.0174
U-118-MG [43]
  fold change (FC): -3.4017
U-118-MG [15]
  fold change (FC): -4.3432
U-118-MG [16]
  fold change (FC): -5.8716
U-118-MG [19]
  fold change (FC): -4.7035
U-118-MG [20]
  fold change (FC): -6.8152
U-118-MG [21]
  fold change (FC): -4.9203
U-118-MG [22]
  fold change (FC): -4.301
U-118-MG [23]
  fold change (FC): -5.6458
U-118-MG [24]
  fold change (FC): -2.6579
SK-N-SH [44]
  fold change (FC): 3.5508
SK-N-SH [25]
  fold change (FC): -6.428
SK-N-SH [26]
  fold change (FC): -2.7547
SK-N-SH [27]
  fold change (FC): -3.5415
SK-N-SH [28]
  fold change (FC): -7.7644
SK-N-SH [29]
  fold change (FC): -4.0965
SK-N-SH [30]
  fold change (FC): -13.1489
SK-N-SH [31]
  fold change (FC): -2.7499
SK-N-SH [32]
  fold change (FC): -8.3361
SK-N-SH [33]
  fold change (FC): -8.0243
SK-N-SH [34]
  fold change (FC): -3.7305
SK-N-SH [35]
  fold change (FC): -5.9976
SK-N-SH [37]
  fold change (FC): -7.3456
SK-N-SH [38]
  fold change (FC): -12.2684
SK-N-SH [39]
  fold change (FC): -11.0378
SK-N-SH [40]
  fold change (FC): -5.7333
SK-N-SH [41]
  fold change (FC): 3.8122

## CCCCCCCCn1nnnc1-c1ccc(C(O)CC(N)(CO)CO)cc1.Cl (stereo not drawn)
SH-SY5Y [1]
  fold change (FC): -3.0092
SH-SY5Y [4]
  fold change (FC): -4.4248
SH-SY5Y [8]
  fold change (FC): -3.5415
SH-SY5Y [9]
  fold change (FC): -4.3188
SH-SY5Y [12]
  fold change (FC): -3.7208
U-118-MG [42]
  fold change (FC): 3.7859
U-118-MG [43]
  fold change (FC): -3.7241
U-118-MG [16]
  fold change (FC): -6.5178
U-118-MG [17]
  fold change (FC): -4.2262
U-118-MG [18]
  fold change (FC): -4.5247
U-118-MG [20]
  fold change (FC): -5.4736
SK-N-SH [44]
  fold change (FC): 3.9862
SK-N-SH [36]
  fold change (FC): -4.5159
